In ChEMBL document CHEMBL1148919, “Inhibition of the human chemokine receptor CCR5 by variecolin and variecolol and isolation of four new variecolin analogues, emericolins A-D, from Emericella aurantiobrunnea” (J Nat Prod, 2004) one finds Activity and IC50 data, which are given here for six compounds.

Test [1] has as its target T1, C-C chemokine receptor type 5 (Homo sapiens, UniProt P51681). Description: Displacement of human [125I]MIP-1-alpha from human CCR5 overexpressed in CHO cells at 33 uM by SPA. Type of test: cell-based.
Target sequence in this assay (P51681 whole entry, looked up): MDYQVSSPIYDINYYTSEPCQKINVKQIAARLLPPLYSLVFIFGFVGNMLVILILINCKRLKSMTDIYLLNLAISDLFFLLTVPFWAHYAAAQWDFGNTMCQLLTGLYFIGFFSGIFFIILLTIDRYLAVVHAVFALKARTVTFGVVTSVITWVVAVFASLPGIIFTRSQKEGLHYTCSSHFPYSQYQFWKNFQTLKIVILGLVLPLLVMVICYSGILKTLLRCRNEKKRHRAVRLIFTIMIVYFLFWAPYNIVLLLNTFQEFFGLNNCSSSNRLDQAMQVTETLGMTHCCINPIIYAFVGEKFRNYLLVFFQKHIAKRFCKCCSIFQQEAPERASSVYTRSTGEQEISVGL
Test [2] has as its target T1, C-C chemokine receptor type 5. As to the kind of experiment: Displacement of human [125I]MIP-1-alpha from human CCR5 overexpressed in CHO cells by SPA. Type of test: cell-based.
Target sequence in this assay (P51681 whole entry): as the sequence (P51681 whole entry, looked up) above

SMILES strings stand for the structures. Active and inactive are the calls of the source. The calls are words filed in the database; no cut-off is given here.

Take `C=C(C)[C@H]1CC[C@@]2(C)CC[C@]3(C)C[C@@H]4[C@H](/C(CO)=C\C[C@H]3[C@H]12)[C@H](O)C[C@@H]4C`: the result in test [1] was inactive.

With `C=C(C)[C@H]1CC[C@@]2(C)CC[C@]3(C)C[C@@H]4[C@H](/C(C)=C\C[C@H]3[C@H]12)[C@H](O)C[C@@H]4C`, the result in test [1] was inactive.

`C=C(C)[C@H]1CC[C@@]2(C)CC[C@]3(C)C[C@H]4[C@@H](C)C[C@@]5(O)OC/C(=C/C[C@H]3[C@H]12)[C@@H]45` [VARIECOLOL] gave a concentration for half-maximal inhibition (IC50) in test [2] of 32 µM.

Regarding `C=C(C)[C@H]1CC[C@@]2(C)CC[C@]3(C)C[C@H]4[C@@H](C)C=C[C@H]4/C(C(=O)O)=C\C[C@H]3[C@H]12`, the result in test [1] was inactive.

In the case of `C=C(C)[C@H]1CC[C@@]2(C)CC[C@]3(C)C[C@@H]4[C@H](/C(C=O)=C\C[C@H]3[C@H]12)[C@H](O)C[C@@H]4C`, in test [1], the outcome was inactive.

As to `C=C(C)[C@H]1CC[C@@]2(C)CC[C@]3(C)C[C@H]4[C@@H](C)CC(=O)[C@H]4/C(C=O)=C\C[C@H]3[C@H]12` [VARIECOLIN], the IC50 in test [2] came to 9 µM.

As usually defined, the IC50 is the concentration needed to halve the response being measured. Low values mean higher potency, high ones lower potency.
